By IC50 is commonly meant the midpoint of a concentration-inhibition curve.

For the test, the target named is T1, ligand binding domain of human RORγ (A262-S507) (Homo sapiens, UniProt P51449).
T1 construct: made in house; host or cells: E. coli
T1 sequence (P51449 262-507): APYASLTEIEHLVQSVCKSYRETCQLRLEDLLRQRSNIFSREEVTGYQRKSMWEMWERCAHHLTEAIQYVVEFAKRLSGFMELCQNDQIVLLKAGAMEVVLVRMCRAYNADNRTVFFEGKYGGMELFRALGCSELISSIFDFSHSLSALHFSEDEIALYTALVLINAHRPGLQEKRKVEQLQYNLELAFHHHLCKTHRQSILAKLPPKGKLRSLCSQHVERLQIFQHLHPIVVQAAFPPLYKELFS
Put plainly: General RORγ SPA binding assay (competition with [3H]25-hydroxycholesterol). The following applies: RORγ SPA binding assay, inhibition of [3H]25-hydroxycholesterol binding; read-out: IC50. A digest of the protocol:
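Scintillation counts from copper His-tag SPA beads (4 mg/mL, 30 min) gave percent inhibition of radioligand binding, from which IC50 values are derived. The E. coli-expressed His-tagged domain (50 nM) is first exposed to compound for 15 min at room temperature in PBS containing 0.5% fatty acid free BSA.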
Consider `Cc1ncc(C(O)(CN=[N+]=[N-])COc2cccc(C(F)(F)F)n2)c(C2CCN(C(=O)Nc3c(F)cccc3F)CC2)n1` (centres unmarked) [Compound N33, 4-{5-[2-Azido-1-hydroxy-1-({[6-(trifluoromethyl)pyridin-2-yl]oxy}methyl)ethyl]-2-methylpyrimidin-4-yl}-N-(2,6-difluorophenyl)piperidine-1-carboxamide], for which the half-inhibitory concentration (IC50) amounted to 2.9 nM.

With `Cc1ncc(C(O)(CN)COc2cccc(C(F)(F)F)n2)c(C2CCN(C(=O)Nc3c(F)cccc3F)CC2)n1` (centres unmarked) [Compound N34, 4-{5-[2-Amino-1-hydroxy-1-({[6-(trifluoromethyl)pyridin-2-yl]oxy}methyl)ethyl]-2-methylpyrimidin-4-yl}-N-(2,6-difluorophenyl)piperidine-1-carboxamide], the IC50 worked out at 12.8 nM. In the case of `Cc1ncc(C(O)(CN)COc2cccc(C(F)(F)F)n2)c(C2CCN(C(=O)Cc3c(F)cccc3F)CC2)n1` (centres unmarked) [Compound N35, 1-Amino-2-(4-{1-[(2,6-difluorophenyl)acetyl]piperidin-4-yl}-2-methylpyrimidin-5-yl)-3-{[6-(trifluoromethyl)pyridin-2-yl]oxy}propan-2-ol], the half-inhibitory concentration (IC50) worked out at 5.5 nM. In the case of `CCNC(=O)NCC(O)(COc1cccc(C(F)(F)F)n1)c1cnc(C)nc1C1CCN(C(=O)Nc2c(F)cccc2F)CC1` (centres unmarked) [Compound N36, N-(2,6-Difluorophenyl)-4-{5-[2-{[(ethylamino)carbonyl]amino}-1-hydroxy-1-({[6-(trifluoromethyl)pyridin-2-yl]oxy}methyl)ethyl]-2-methylpyrimidin-4-yl}piperidine-1-carboxamide], the IC50 is 47.8 nM. Under `CC(=O)NCC(O)(COc1cccc(C(F)(F)F)n1)c1cnc(C)nc1C1CCN(C(=O)Nc2c(F)cccc2F)CC1` (centres unmarked) [Compound N37, 4-{5-[2-(Acetylamino)-1-hydroxy-1-({[6-(trifluoromethyl)pyridin-2-yl]oxy}methyl)ethyl]-2-methylpyrimidin-4-yl}-N-(2,6-difluorophenyl)piperidine-1-carboxamide] stands 36.9 nM; under `CC(=O)NCCNCC(O)(COc1cccc(C(F)(F)F)n1)c1cnc(C)nc1C1CCN(C(=O)Nc2c(F)cccc2F)CC1` (centres unmarked) [Compound N38, 4-{5-[2-{[2-(Acetylamino)ethyl]amino}-1-hydroxy-1-({[6-(trifluoromethyl)pyridin-2-yl]oxy}methyl)ethyl]-2-methylpyrimidin-4-yl}-N-(2,6-difluorophenyl)piperidine-1-carboxamide], 57.9 nM. For the compound `CC(=O)N1CCN(CC(O)(COc2cccc(C(F)(F)F)n2)c2cnc(C)nc2C2CCN(C(=O)Nc3c(F)cccc3F)CC2)CC1` (centres unmarked) [Compound N39, 4-{5-[2-(4-Acetylpiperazin-1-yl)-1-hydroxy-1-({[6-(trifluoromethyl)pyridin-2-yl]oxy}methyl)ethyl]-2-methylpyrimidin-4-yl}-N-(2,6-difluorophenyl)piperidine-1-carboxamide], the IC50 was found to be 84.1 nM. Turning to `CC(=O)N1CCC(NCC(O)(COc2cccc(C(F)(F)F)n2)c2cnc(C)nc2C2CCN(C(=O)Nc3c(F)cccc3F)CC2)C1` (centres unmarked) [Compound N40, 4-(5-{2-[(1-Acetylpyrrolidin-3-yl)amino]-1-hydroxy-1-({[6-(trifluoromethyl)pyridin-2-yl]oxy}methyl)ethyl}-2-methylpyrimidin-4-yl)-N-(2,6-difluorophenyl)piperidine-1-carboxamide], the IC50 came out at 134 nM. Take `CC(=O)NCCC(=O)NCC(O)(COc1cccc(C(F)(F)F)n1)c1cnc(C)nc1C1CCN(C(=O)Nc2c(F)cccc2F)CC1` (stereo not drawn) [Compound N41, 4-(5-{2-[(N-Acetyl-beta-alanyl)amino]-1-hydroxy-1-({[6-(trifluoromethyl)pyridin-2-yl]oxy}methyl)ethyl}-2-methylpyrimidin-4-yl)-N-(2,6-difluorophenyl)piperidine-1-carboxamide]: the IC50 came out at 150 nM. In the case of `Cc1ncc(C(O)(CNC(=O)CCO)COc2cccc(C(F)(F)F)n2)c(C2CCN(C(=O)Nc3c(F)cccc3F)CC2)n1` (centres unmarked) [Compound N42, N-(2,6-Difluorophenyl)-4-(5-{1-hydroxy-2-[(3-hydroxypropanoyl)amino]-1-({[6-(trifluoromethyl)pyridin-2-yl]oxy}methyl)ethyl}-2-methylpyrimidin-4-yl)piperidine-1-carboxamide], the IC50 stood at 183 nM. Take `CC(=O)NCC(O)(COc1cccc(C(F)(F)F)n1)c1cnc(C)nc1C1CCN(C(=O)Oc2ccccc2F)CC1` (centres unmarked) [Compound N43, 2-Fluorophenyl 4-{5-[2-(acetylamino)-1-hydroxy-1-({[6-(trifluoromethyl)pyridin-2-yl]oxy}methyl)ethyl]-2-methylpyrimidin-4-yl}piperidine-1-carboxylate]: the IC50 worked out at 9.2 nM. Regarding `Cc1ncc(C(O)(COc2cccc(C(F)(F)F)n2)C(=O)O)c(C2CCN(C(=O)Nc3c(F)cccc3F)CC2)n1` (centres unmarked) [Compound N44, 2-[4-(1-{[(2,6-Difluorophenyl)amino]carbonyl}piperidin-4-yl)-2-methylpyrimidin-5-yl]-2-hydroxy-3-{[6-(trifluoromethyl)pyridin-2-yl]oxy}propanoic acid], the IC50 worked out at 899 nM.

`CNC(=O)C(O)(COc1cccc(C(F)(F)F)n1)c1cnc(C)nc1C1CCN(C(=O)Nc2c(F)cccc2F)CC1` (centres unmarked) [Compound N45, N-(2,6-Difluorophenyl)-4-{5-[1-hydroxy-2-(methylamino)-2-oxo-1-({[6-(trifluoromethyl)pyridin-2-yl]oxy}methyl)ethyl]-2-methylpyrimidin-4-yl}piperidine-1-carboxamide]: the concentration for half-maximal inhibition (IC50) was found to be 81.9 nM.

On to `CC(=O)NCC(O)(COc1cccc(C(F)(F)F)n1)c1cnc(C)nc1C1CCN(C(=O)Oc2ccc(F)cc2)CC1` (centres unmarked) [Compound N46, 4-Fluorophenyl 4-{5-[2-(acetylamino)-1-hydroxy-1-({[6-(trifluoromethyl)pyridin-2-yl]oxy}methyl)ethyl]-2-methylpyrimidin-4-yl}piperidine-1-carboxylate], for which the IC50 is 39 nM. Consider `CC(=O)NCC(O)(COc1cccc(C(F)(F)F)n1)c1cnc(C)nc1C1CCN(C(=O)Oc2c(F)cccc2F)CC1` (centres unmarked) [Compound N47, 2,6-Difluorophenyl 4-{5-[2-(acetylamino)-1-hydroxy-1-({[6-(trifluoromethyl)pyridin-2-yl]oxy}methyl)ethyl]-2-methylpyrimidin-4-yl}piperidine-1-carboxylate], for which the half-inhibitory concentration (IC50) was found to be 3.6 nM. The value for `Cc1ncc(C(N)(C#N)COc2cccc(C(F)(F)F)n2)c(C2CCN(C(=O)Nc3c(F)cccc3F)CC2)n1` (centres unmarked) [Compound N48, 4-[5-(1-Amino-1-cyano-2-{[6-(trifluoromethyl)pyridin-2-yl]oxy}ethyl)-2-methylpyrimidin-4-yl]-N-(2,6-difluorophenyl)piperidine-1-carboxamide] was 5.6 nM. The value for `Cc1ncc(C(N)(COc2cccc(C(F)(F)F)n2)C(N)=O)c(C2CCN(C(=O)Nc3c(F)cccc3F)CC2)n1` (centres unmarked) [Compound N49, 4-{5-[1,2-Diamino-2-oxo-1-({[6-(trifluoromethyl)pyridin-2-yl]oxy}methyl)ethyl]-2-methylpyrimidin-4-yl}-N-(2,6-difluorophenyl)piperidine-1-carboxamide] was 176 nM; that for `Cc1ncc(C2(C)CN(c3ccnc(C(F)(F)F)n3)C(=O)O2)c(C2CCN(C(=O)Cc3c(F)cccc3F)CC2)n1` (centres unmarked) [Compound N50, 5-(4-{1-[(2,6-Difluorophenyl)acetyl]piperidin-4-yl}-2-methylpyrimidin-5-yl)-5-methyl-3-[2-(trifluoromethyl)pyrimidin-4-yl]-1,3-oxazolidin-2-one] was 290 nM. For `Cc1ncc(C2(COc3cccc(C(F)(F)F)n3)CCO2)c(C2CCN(C(=O)Nc3c(F)cccc3F)CC2)n1` (centres unmarked) [Compound N51, N-(2,6-Difluorophenyl)-4-{2-methyl-5-[2-({[6-(trifluoromethyl)pyridin-2-yl]oxy}methyl)oxetan-2-yl]pyrimidin-4-yl}piperidine-1-carboxamide], the IC50 amounted to 4.9 nM. Under `Cc1ncc(C2(COc3cccc(C(F)(F)F)n3)CNC(=O)O2)c(C2CCN(C(=O)Nc3c(F)cccc3F)CC2)n1` (centres unmarked) [Compound N52, N-(2,6-Difluorophenyl)-4-{2-methyl-5-[2-oxo-5-({[6-(trifluoromethyl)pyridin-2-yl]oxy}methyl)-1,3-oxazolidin-5-yl]pyrimidin-4-yl}piperidine-1-carboxamide] stands 13.8 nM.

Source of the values: patent US10035790B2, “RORγ modulators” (BRISTOL-MYERS SQUIBB COMPANY, priority 2012, dated 2018).
